Results taken from ChEMBL document CHEMBL5608113, “Targeting of CAF-induced therapy resistance in CRC organoid-stroma co-cultures” (2024).

Tests used:
Assay type in all cases: functional, Homo sapiens
Details in all cases: Homo sapiens, Concentration 10 uM; read-out: Cell Viability
[1] = system: Colon cancer organoid; assay: Targeting of F14 CAF-induced therapy resistance in O23 CRC organoid-stroma co-culture. Cell viability is reported with SN-38.
[2] = system: Colon cancer organoid; assay: Targeting of F14 CAF-induced therapy resistance in O23 CRC organoid-stroma co-culture. Cell viability is reported with Gefitinib.
[3] = system: Colon cancer organoid; assay: Targeting of F14 CAF-induced therapy resistance in O14 CRC organoid-stroma co-culture. Cell viability is reported with Gefitinib.
[4] = system: Colon cancer organoid; assay: Targeting of F14 CAF-induced therapy resistance in O23 CRC organoid-stroma co-culture. Cell viability is reported without Gefitinib.
[5] = system: Colon cancer organoid; assay: Targeting of F14 CAF-induced therapy resistance in O14 CRC organoid-stroma co-culture. Cell viability is reported without Gefitinib.

SMILES | viability at 10 µM [1] [%] | viability at 10 µM [2] [%] | viability at 10 µM [3] [%] | viability at 10 µM [4] [%] | viability at 10 µM [5] [%]
CCOC(=O)c1c(/C(C#N)=C\N)c2ccc(Cl)c(Cl)c2n1C | 68.1 | 52 | 47.7 | 99.7 | 106
O=C1[C@H](Cc2ccc(O)cc2)N2C(=O)CCN(C(=O)NCc3ccccc3)[C@H]2CN1Cc1cccc2ccccc12 | 103 | 85.3 | 22 | 125 | 37.1
Cc1cc(C)cc(C(=O)NOCCCCCC(=O)NO)c1 | 130 | 220 | 31.1 | 193 | 28.3
Cc1sc2c(c1C)C(c1ccc(Cl)cc1)=N[C@H](CC(=O)OC(C)(C)C)c1nnc(C)n1-2 | 73.3 | 72 | 55.8 | 130 | 103
COc1cc(-c2cn([C@H]3CCc4c(F)cccc4N(CC(F)(F)F)C3=O)nn2)ccc1-n1cnc(C)c1 | 69.6 | 72 | 38.5 | 86.7 | 108
Cc1cc(=O)n(C)c2cc(N3C(=O)CC[C@H](NS(=O)(=O)CC(C)C)[C@H]3c3ccc(Cl)cc3)ccc12 | 81.7 | 66 | 72.6 | 144 | 75.8
CN1CCN(c2ccc(-c3cccc(CN4CCOCC4)c3)cc2NC(=O)c2c[nH]c(=O)cc2C(F)(F)F)CC1 | 102 | 62.5 | 65.8 | 131 | 99.7
Cc1nc(N2CC[C@H](O)C2)ncc1-c1cc(C(F)(F)F)cc2[nH]ncc12 | 82.7 | 51.5 | 21.1 | 123 | 91
C[C@@H]1CC(=O)Nc2cccc(-c3ccc4c(c3)c(-c3cnn(C)c3)nn4C)c2N1 | 70.4 | 69 | 21.1 | 115 | 43.6
CCN(C(=O)CO)[C@H]1CN(/C(=N\C#N)Nc2cccc(OC(F)F)c2)N=C1c1ccc(Cl)c(Cl)c1 | 115 | 54.9 | 62.2 | 84 | 125
CCc1cc2cc(NS(=O)(=O)c3ccc(C#N)cc3)ccc2n(CC)c1=O | 88.2 | 73.6 | 84 | 127 | 106
CN(C)[C@H]1CN(C2CCc3cccc(F)c32)C[C@@H]1c1ccc(N2CCN(S(C)(=O)=O)CC2)cc1 (stereo not given in full) | 112 | 107 | 68.1 | 81.8 | 70.2
CO[C@H]1CNC[C@@H](OCC2CCC(F)(F)CC2)[C@@H]1Nc1ncc(-c2cncc(C)c2)c2cc(C)c(=O)[nH]c12 | 81.8 | 78.8 | 65.2 | 104 | 78.7
CCCCNNC(=O)c1ccc(Br)cc1 | 75 | 53.8 | 44.9 | 151 | 85.9
Cc1sc2c(c1C)C(c1ccc(Cl)cc1)=N[C@@H](CC(=O)NCCCCCCCCNC(=O)COc1cccc3c1C(=O)N(C1CCC(=O)NC1=O)C3=O)c1nnc(C)n1-2 (stereo not given in full) | 4.21 | 5.19 | 2.25 | 6.5 | 3.56
COc1cc(Nc2ccnc3ccc(Br)cc23)cc(OC)c1OC | 12.5 | 6.32 | 8.76 | 35 | 18.2
CN(C)CCCOc1ccc(-c2cc(NCCCn3cccn3)nc(S(C)(=O)=O)n2)cc1 | 1.65 | 1.76 | 65.9 | 0.601 | 100
COc1cc(N(C)c2ccnc3ccc(C(F)(F)F)cc23)cc(OC)c1OC | 64.7 | 69.7 | 50.1 | 135 | 109
CNCCN1CCC(c2cc(CN(C)C(=O)c3cccc(Oc4ccccc4)c3)ccn2)CC1 | 84.5 | 71.9 | 40.3 | 118 | 80.6
COc1c(C)cc(NC(=O)c2nn(Cc3ccc(F)cc3)c3c2CN(C(=O)c2ccc[nH]2)C[C@]3(C)C(N)=O)cc1C | 73.7 | 66.4 | 52.8 | 81.4 | 121
Cc1cccc(-c2cnc3occ(-c4ccc(C(=O)O)c(C5CCCC5)c4)c3c2)c1 | 66.7 | 75.6 | 52.4 | 111 | 112

SMILES | viability at 10 µM [1] [%] | viability at 10 µM [2] [%] | viability at 10 µM [3] [%] | viability at 10 µM [4] [%] | viability at 10 µM [5] [%]
CN(C)C(=O)c1ccc(-c2cc(C(=O)N[C@@H]3CCc4ccccc43)no2)cc1O | 64.6 | 61.6 | 33.6 | 83.1 | 77
COc1cc(-c2cn([C@H]3CCc4ccccc4N(CC(F)(F)F)C3=O)nn2)ccc1-n1ccc(C)n1 | 48.6 | 38.9 | 41.1 | 81.1 | 113
Cn1cc(-c2ccc3occ(-c4cccc(-c5ccncc5)c4)c3n2)cn1 | 65.6 | 87.7 | 56.4 | 114 | 112
O=C(NCCCN1CCOC1=O)c1cnc(NCc2cc(Br)ccc2Br)nc1NC1CCCC1 | 61.8 | 55.2 | 51.8 | 118 | 126
CN(C)C(=O)c1ccc(-c2cc(C(=O)N(C)C3CCCC3)no2)cc1O | 76.4 | 55.9 | 52.8 | 111 | 103
O=C(O)c1ccc(-c2coc3ncc(-c4ccccc4)cc23)cc1Cl | 103 | 172 | 73.9 | 214 | 71.5
c1ccc2oc(-c3csc(C4CCN(Cc5nc6ncccc6[nH]5)CC4)n3)cc2c1 | 60.8 | 66 | 37.9 | 159 | 94.5
C[C@H]1CCCN1Cc1nc2cc(NC(=O)c3ccc4cnccc4c3)ccc2[nH]1 | 43.3 | 26.6 | 37.4 | 68.1 | 53.7
Cc1cc(C)cc([C@@H]2c3cc(C)ccc3NC(=O)CN2C(=O)c2ccc(Br)s2)c1 | 82.1 | 76 | 78.3 | 110 | 85.7
Cc1cc(C)cc([C@H]2c3cc(C)ccc3NC(=O)CN2C(=O)c2ccc(Br)s2)c1 | 86.1 | 63.4 | 63.7 | 84.3 | 96.4
COc1cc(Nc2nc(C)cc(-c3cnn4nc(OC)ccc34)n2)cc(C(F)(F)F)c1 | 59.6 | 68.9 | 52.6 | 119 | 115
CC1=C(C)C(=O)C(C(C)(C)CC(=O)N(CCCCSC[C@H]2O[C@@H](n3cnc4c(N)ncnc43)[C@@H]3OC(C)(C)O[C@@H]32)Cc2cccc(-c3ccc(Cl)cc3)c2)=C(C)C1=O | 9.16 | 7.29 | 66.1 | 8.34 | 121
COc1cc(C(=O)N2CC[C@@H](O)[C@@H](N)C2)cc2nc(-c3cc4ccccc4n3CC3CC3)n(C)c12 | 75.5 | 73.5 | 58.8 | 112 | 107
COCCN1CCC(c2cc(CN(C)C(=O)c3cccc(Oc4ccccc4)c3)ccn2)CC1 | 34 | 27.5 | 65.6 | 46.6 | 67.2
CC(=O)c1cc(-c2ccccc2OCC2CC2)c2ncccn12 | 102 | 76.3 | 73.2 | 142 | 80.2
Cc1cc(CN)cc(C)c1-c1ncn(C)c1-c1cncn1C | 87.1 | 73.9 | 80.2 | 112 | 112
CN(C)C(=O)N1CC[C@H](NC2=Nc3cc(F)ccc3N(CC(F)F)c3ccc(Cl)cc32)C1 | 75.2 | 43.7 | 61.6 | 102 | 87.4
CC1=C(C)C(=O)C(C(C)(C)CC(=O)N(CCCCSC[C@H]2O[C@@H](n3cnc4c(N)ncnc43)[C@H](O)[C@@H]2O)Cc2cccc(-c3ccc(Cl)cc3)c2)=C(C)C1=O | 69.9 | 57.2 | 59.5 | 92.3 | 89.1
CC(C)Oc1ccc(-c2c[nH]cc2CN(C)CCO)cc1 | 80.1 | 90.2 | 58.5 | 129 | 72
CCn1c(-c2nc3cc(C(=O)N4CCCC(N)C4)ccc3n2C)cc2ccccc21 (stereo not given) | 79.2 | 83.2 | 65 | 139 | 76.9
